Counter-ions that a name gives are not always drawn.

Common to all, as to format: cell-based
Assay [1] has as its system MCF-7 single cells. Kind of assay: Proliferation of single cells in the microfluidic device in the presence of Dox. The following applies: time not restated (period of 48 hours). As for the experimental part: (§1) Drug Assays. Drug assays were conducted on the tumor cells trapped in the microfluidic device. Food and Drug Administration (FDA) approved chemotherapeutic medication Doxorubicin hydrochloride (Dox, Sigma Aldrich) was used on these cells. Dox was diluted with WFI (water for injection) for cell culture (Gibco) to make a 1 mM Dox solution and it was stored at 4° C. This stock solution of Dox was diluted to 100 μM using DMEM, and further 10-fold serial dilutions were done using DMEM or 1× Annexin Binding Buffer (Life technologies) to obtain the desired concentrations of 100 μM, 10 μM, 1 μM, 0.1 μM, 0.01 μM and 0.001 μM. For all experiments, Dox was prepared freshly by diluting it to 100 μM using DMEM and further dilutions were done to achieve the desired concentrations of Dox. The mixing of Dox with the cell samples and loading them in the microfluidic device was done within 2 minutes, followed by imaging of the loaded sample in the microfluidic device. After imaging the microfluidic device, it was incubated in 37° C. and 5% CO2 environment.
(§2) Experimental Protocol. The experimental setup for single cell isolation consists of the microfluidic device, 200 μL single channel pipette (Eppendorf) and a motorized inverted system microscope (Olympus IX81). A sample of 2000 cells in 100 μL was loaded in the 6 mm reservoir (inlet) in the microfluidic device. A 200 μL single channel pipette was set at the 1 mm outlet and it was used to aspirate the cell sample. Flow is generated from the inlet reservoir due to the aspiration pressure and passes through the trapping array. As soon as a cell enters into the parking spots, it gets trap there due to the obstacle pillar. This setup is shown the by schematic in FIG. 2A.
(§3) The MCF-7 cells are tagged using a green fluorescent dye CMFDA (Life technologies) and are trapped in the microfluidic device using the same protocol. […] Media was added in the hydrodynamic height added on the reservoir to keep the cells from getting displaced from the parking spots. All the cell samples including the drug treated cells were handled with the same experimental procedure. The loading time of the cells after cell sample preparation is ˜5 seconds. The hydrodynamic height for the drug treated samples was given by media of corresponding drug concentration.
(§4) Cell staining, viability and apoptosis detection. Proliferation of cells in the microfluidic chip was monitored using CellTracker™ Green CMFDA dye (Life technologies). These counts were validated without staining and by using NucBlue™ Live ReadyProbes™ Reagent (Life technologies) to identify the cell nuclei and thus quantifying the cell counts. LIVE/DEAD® Cell Imaging Kit (Life technologies) was used to analyze viability of cells. The stain was made according to the manufacturer's protocol and was used to identify the live and dead cells. Alexa Fluor® 488 Annexin V (Life technologies) was used for detection of apoptosis. The cell sample and Dox dilution was done using 1× Annexin Binding Buffer (Life technologies). 100 μL of sample was prepared (80 μL cell sample+10 μL Annexin V+10 μL Dox) for conducting drug assays. The final concentrations of the Dox in 100 μL sample were 0.01 μM, 0.001 μM and 0.0001 μM. This sample was incubated at 37° C. and 5% CO2 for 30 minutes before loading in the microfluidic device. The images were taken at different time points for different studies. The microfluidic device was stored in the incubator at 37° C. and 5% CO2 between different image time points.
(§5) To understand the effect of different concentrations of dox on viability of single cells, the inventors conducted a dose response cell viability assay in the microfluidic device. […] From this viability curve, three concentrations were selected to study the proliferation potential of drug resistant MCF-7 and MB-231 single cells. As the […] on the proliferation rate, the lowest three concentrations were selected for this study. […]

Assay [2] deals with MB-231 single cells. The assay is described as above. As for the experimental part:
as §1, §2, §3, §4, §5

For assay [3], the system named is MCF-7 cells. Put plainly: Identifying the state of drug treated cells (apoptotic, non-proliferating/quiescent, proliferating) in the microfluidic device. The settings on record: for cells identified as quiescent: 48 hours. The protocol: as §1, §4
(§6) Identifying the state of drug treated cells. […] These single cells can exist in an apoptotic state or a non-proliferative (quiescent) state. Thus, identifying the state of the cell can give overall information about the drug resistance of cancer cells.
(§7) The apoptotic cells are dead cells; and the non-proliferating cells are the drug resistant cells which are live and have very low proliferative potential. The proliferating cells are also drug resistant cells, which multiply despite of the presence of drug. The drug response for these trapped cells is assessed at 0, 6, 12, 24, 48 hours at 0.01 μM, 0.001 μM and 0.0001 μM concentrations of Dox.
(§8) At the end of 48 hours, the non-proliferative cells were identified as quiescent cells. […] Similarly, 23%, 34% and 10% of cells were identified as quiescent for 0.01 μM, 0.001 μM and 0.0001 μM of dox and MB-231.

Assay [4] concerns MB-231 cells. The description is as above. The following applies: for cells identified as quiescent: 48 hours. The protocol:
as §1, §4, §6, §7, §8

Assay [5] relates to MB231 cells. Kind of assay: Mechanical characterization (Young's modulus) of drug treated cells in the μFPA device. The settings on record: FIG. 12A. As for the experimental part: Total 1440 traps, 150 μL Inlet reservoir, Aspiration channel dimension 5×5×35 μm^3. In these figures, a schematic of the complete design. It has an inlet reservoir for holding cell sample. The inlet channel divides into 8 channels and all of them have dead ends. Aspiration traps are place on both sides of the inlet channels. Outlets of two aspiration arrays comes into an outlet channel. Except the first and last outlet channel where a single aspiration has outlets. It has total 1440 traps. This is the snapshot of the PDMS device. In the SEM image you can have a sense of the larger dimension of inlet and outlet channels compared to the aspiration channels.
FIGS. 10A to 10C show the mechanical characterization of cells in the device of the present invention.
FIGS. 12A and 12B show the sensitivity of different cells (MB231 and MCF7) to different drugs (blebbistatin and paclitaxel), and the Young's modulus of the cells. […] Also, cell cycle phases have altered cytoskeletal scaffold. Thus, the μFPA device is sensitive enough to measure cytoskeletal alterations caused by drug interventions and cell cycle phase.

As for `COc1cccc2c1C(=O)c1c(O)c3c(c(O)c1C2=O)C[C@@](O)(C(=O)CO)C[C@@H]3O[C@H]1C[C@H](N)[C@H](O)[C@H](C)O1` [Dox, Doxorubicin hydrochloride], the cells underwent proliferation is listed as about 80% in assay [1] (MCF-7, 0.0001 μM Dox); about 60% in assay [1] (MCF-7, 0.001 μM Dox); about 45% in assay [1] (MCF-7, 0.01 μM Dox). The cells proliferated in assay [2] (MB-231, 0.0001 μM dox, time not restated (period of 48 hours)) is given as about 70%; in assay [2] (MB-231, 0.001 μM dox, time not restated (period of 48 hours)), about 50%; in assay [2] (MB-231, 0.01 μM dox, at the end of 48 hours) it was about 40%; in assay [2] (MB-231, 0.01 μM dox, in 24 hours), about 20%. Moreover, the “cells show drug resistance” value is about 90% in assay [3] (MCF-7, 0.0001 μM dox); about 75% in assay [3] (MCF-7, 0.001 μM dox); about 60% in assay [3] (MCF-7, 0.01 μM dox); about 85% in assay [4] (MB-231, 0.0001 μM dox); about 80% in assay [4] (MB-231, 0.001 μM dox); about 60% in assay [4] (MB-231, 0.01 μM dox). The “cells identified as quiescent” value in assay [3] (MCF-7, 0.0001 μM dox) was determined as 6%; in assay [3] (MCF-7, 0.001 μM dox), 10%; in assay [3] (MCF-7, 0.01 μM dox), 8%; in assay [4] (MB-231, 0.0001 μM dox) it was 10%; in assay [4] (MB-231, 0.001 μM dox), 34%; in assay [4] (MB-231, 0.01 μM dox), 23%.

Consider `Cc1ccc2c(c1)C(=O)C1(O)CCN(c3ccccc3)C1=N2` (stereo not drawn) [blebbistatin], for which the “cytoskeletal alteration seen as Young's modulus of the cells vs control” value in assay [5] was “cytoskeletal alternations in MB231 are induced”.

Take `CC(=O)O[C@H]1C(=O)[C@@]2(C)[C@H]([C@H](OC(=O)c3ccccc3)[C@]3(O)C[C@H](OC(=O)[C@H](O)[C@@H](NC(=O)c4ccccc4)c4ccccc4)C(C)=C1C3(C)C)[C@]1(OC(C)=O)CO[C@@H]1C[C@@H]2O` [paclitaxel]: the “cytoskeletal alteration seen as Young's modulus of the cells vs control” value in assay [5] is on record as “cytoskeletal alternations in MB231 are induced”.

(Values after patent publication US20220297126A1, “Microfluidic Pipette Aspirators for Large-Scale Analysis of Single Cells, Clusters and Their Sub-Populations” (Texas Tech University System, priority 2019, published 2022).)
